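Five compound concentrations were applied to cells in 96-well plates for 48 hours; endpoints were derived by simple linear interpolation of the resulting dose-response curve. Here, GI50 denotes the concentration required for 50% inhibition of growth.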 The source made the active and inactive calls. Cut-off read from the data, not from the text of the source: active = GI50 up to about 1.1 µM and inactive = higher.
Columns and labels:
Test in all cases: growth of human tumour cells (NCI), 48 h
PC-3 = system: PC-3
KM12 = system: KM12
BT-549 = system: BT-549
IGROV-1 = system: IGROV-1
SK-MEL-2 = system: SK-MEL-2
OVCAR-8 = system: OVCAR-8
SK-MEL-5 = system: SK-MEL-5
T47D = system: T47D
SF-295 = system: SF-295
OVCAR-3 = system: OVCAR-3
A498 = system: A498
MDA-MB-435 = system: MDA-MB-435
RXF 393 = system: RXF 393
MDA-N = system: MDA-N
M14 = system: M14
OVCAR-4 = system: OVCAR-4
U-251 = system: U-251
OVCAR-5 = system: OVCAR-5
HOP-92 = system: HOP-92
NCI-H23 = system: NCI-H23
MCF7 = system: MCF7
EKVX = system: EKVX
UACC-62 = system: UACC-62
A549 = system: A549
K562 = system: K562
SK-MEL-28 = system: SK-MEL-28
HCT-15 = system: HCT-15
786-0 = system: 786-0
Malme-3M = system: Malme-3M
ACHN = system: ACHN
LOX IMVI = system: LOX IMVI
Hs-578T = system: Hs-578T
DU-145 = system: DU-145
HOP-62 = system: HOP-62
TK-10 = system: TK-10
SN12C = system: SN12C
HT-29 = system: HT-29
UACC-257 = system: UACC-257
HCT-116 = system: HCT-116
SW-620 = system: SW-620
CCRF-CEM = system: CCRF-CEM
MDA-MB-231 = system: MDA-MB-231
NCI-H522 = system: NCI-H522
CAKI-1 = system: CAKI-1
RPMI-8226 = system: RPMI-8226
SF-268 = system: SF-268
SF-539 = system: SF-539
COLO 205 = system: COLO 205
UO-31 = system: UO-31
NCI-H226 = system: NCI-H226
MOLT-4 = system: MOLT-4
NCI/ADR-RES = system: NCI/ADR-RES
HL-60 = system: HL-60
SNB-19 = system: SNB-19
SNB-75 = system: SNB-75
SK-OV-3 = system: SK-OV-3
HCC 2998 = system: HCC 2998
NCI-H460 = system: NCI-H460

Structure (SMILES): O=C1CCC(=O)N1CNc1ccc2c(c1)S(=O)(=O)c1ccccc1O2
- GI50 (PC-3): > 100 µM (inactive)
- GI50 (KM12): > 100 µM (inactive)
- GI50 (BT-549): > 100 µM (inactive)
- GI50 (IGROV-1): > 100 µM (inactive)
- GI50 (SK-MEL-2): > 100 µM (inactive)
- GI50 (OVCAR-8): > 100 µM (inactive)
- GI50 (SK-MEL-5): > 100 µM (inactive)
- GI50 (T47D): > 100 µM (inactive)
- GI50 (SF-295): > 100 µM (inactive)
- GI50 (OVCAR-3): > 100 µM (inactive)
- GI50 (A498): > 100 µM (inactive)
- GI50 (MDA-MB-435): > 100 µM (inactive)
- GI50 (RXF 393): > 100 µM (inactive)
- GI50 (MDA-N): > 100 µM (inactive)
- GI50 (M14): > 100 µM (inactive)
- GI50 (OVCAR-4): > 100 µM (inactive)
- GI50 (U-251): > 100 µM (inactive)
- GI50 (OVCAR-5): > 100 µM (inactive)
- GI50 (HOP-92): > 100 µM (inactive)
- GI50 (NCI-H23): > 100 µM (inactive)
- GI50 (MCF7): > 100 µM (inactive)
- GI50 (EKVX): 46 µM (inactive)
- GI50 (UACC-62): > 100 µM (inactive)
- GI50 (A549): > 100 µM (inactive)
- GI50 (K562): > 100 µM (inactive)
- GI50 (SK-MEL-28): > 100 µM (inactive)
- GI50 (HCT-15): > 100 µM
- GI50 (786-0): > 100 µM (inactive)
- GI50 (Malme-3M): > 100 µM (inactive)
- GI50 (ACHN): > 100 µM (inactive)
- GI50 (LOX IMVI): > 100 µM (inactive)
- GI50 (Hs-578T): > 100 µM (inactive)
- GI50 (DU-145): > 100 µM (inactive)
- GI50 (HOP-62): > 100 µM (inactive)
- GI50 (TK-10): > 100 µM (inactive)
- GI50 (SN12C): > 100 µM (inactive)
- GI50 (HT-29): > 100 µM (inactive)
- GI50 (UACC-257): > 100 µM (inactive)
- GI50 (HCT-116): > 100 µM (inactive)
- GI50 (SW-620): > 100 µM (inactive)
- GI50 (CCRF-CEM): > 100 µM (inactive)
- GI50 (MDA-MB-231): > 100 µM (inactive)
- GI50 (NCI-H522): > 100 µM (inactive)
- GI50 (CAKI-1): > 100 µM (inactive)
- GI50 (RPMI-8226): 54.7 µM (inactive)
- GI50 (SF-268): > 100 µM (inactive)
- GI50 (SF-539): > 100 µM (inactive)
- GI50 (COLO 205): > 100 µM (inactive)
- GI50 (UO-31): > 100 µM (inactive)
- GI50 (NCI-H226): > 100 µM (inactive)
- GI50 (MOLT-4): > 100 µM (inactive)
- GI50 (NCI/ADR-RES): > 100 µM (inactive)
- GI50 (HL-60): > 100 µM (inactive)
- GI50 (SNB-19): > 100 µM (inactive)

Structure (SMILES): c1ccc(-c2cc(-c3cc(-c4ccccc4)n(-c4ccccc4)n3)nn2-c2ccccc2)cc1
- GI50 (PC-3): > 100 µM (inactive)
- GI50 (KM12): > 100 µM (inactive)
- GI50 (BT-549): > 100 µM (inactive)
- GI50 (IGROV-1): > 100 µM (inactive)
- GI50 (SK-MEL-2): > 100 µM (inactive)
- GI50 (OVCAR-8): > 100 µM (inactive)
- GI50 (SNB-75): 56.9 µM (inactive)
- GI50 (SK-MEL-5): > 100 µM (inactive)
- GI50 (T47D): > 100 µM (inactive)
- GI50 (SF-295): > 100 µM (inactive)
- GI50 (OVCAR-3): > 100 µM (inactive)
- GI50 (SK-OV-3): > 100 µM (inactive)
- GI50 (A498): > 100 µM (inactive)
- GI50 (MDA-MB-435): > 100 µM (inactive)
- GI50 (RXF 393): > 100 µM (inactive)
- GI50 (MDA-N): > 100 µM (inactive)
- GI50 (M14): > 100 µM (inactive)
- GI50 (OVCAR-4): 94.8 µM (inactive)
- GI50 (U-251): > 100 µM (inactive)
- GI50 (OVCAR-5): > 100 µM (inactive)
- GI50 (NCI-H23): > 100 µM (inactive)
- GI50 (MCF7): > 100 µM (inactive)
- GI50 (EKVX): > 100 µM (inactive)
- GI50 (UACC-62): > 100 µM (inactive)
- GI50 (A549): > 100 µM (inactive)
- GI50 (K562): > 100 µM (inactive)
- GI50 (HCT-15): > 100 µM
- GI50 (HCC 2998): > 100 µM (inactive)
- GI50 (786-0): 78.5 µM (inactive)
- GI50 (Malme-3M): > 100 µM (inactive)
- GI50 (ACHN): > 100 µM (inactive)
- GI50 (Hs-578T): 52 µM (inactive)
- GI50 (DU-145): > 100 µM (inactive)
- GI50 (HOP-62): 35.7 µM (inactive)
- GI50 (TK-10): > 100 µM (inactive)
- GI50 (SN12C): > 100 µM (inactive)
- GI50 (HT-29): > 100 µM (inactive)
- GI50 (UACC-257): > 100 µM (inactive)
- GI50 (HCT-116): > 100 µM (inactive)
- GI50 (CCRF-CEM): > 100 µM (inactive)
- GI50 (MDA-MB-231): > 100 µM (inactive)
- GI50 (NCI-H522): > 100 µM (inactive)
- GI50 (CAKI-1): > 100 µM (inactive)
- GI50 (SF-268): > 100 µM (inactive)
- GI50 (SF-539): > 100 µM (inactive)
- GI50 (COLO 205): > 100 µM (inactive)
- GI50 (NCI-H460): > 100 µM (inactive)
- GI50 (UO-31): > 100 µM (inactive)
- GI50 (NCI-H226): > 100 µM (inactive)
- GI50 (MOLT-4): > 100 µM (inactive)
- GI50 (NCI/ADR-RES): > 100 µM (inactive)
- GI50 (SNB-19): > 100 µM (inactive)
